Test results taken from patent publication US11345702B1 (Myoforte Therapeutics, Inc., priority 2020, dated 2022).

Target: 15-PGDH/HPGD (Homo sapiens (Human), UniProt P15428)
Assay: hPGDH inhibitor screening biochemical assay
Conditions: read-out: hPGDH: Average IC50
Protocol: A hydroxyprostaglandin dehydrogenase inhibition screening biochemical assay can be performed to assess the synthesized inhibitors provided herein. Provided herein is an exemplary biochemical assay for hPGDH inhibitor screening.
The in vitro biochemical assay can be performed in white, 384 plates in total 20 μl reaction volume consisting of 10 nM of 15-PGDH/HPGD (R&D System #5660-DH), 15 μM Prostaglandin E2 (Sigma, Cat #P5640-10MG) and 0.25 mM (3-Nicotinamide adenine dinucleotide sodium salt (Sigma, Cat #N0632-5G) made in reaction buffer (50 mM Tris-HCl, pH 7.5, 0.01% Tween 20) at 10-point dose response curve for test/tool compounds. Briefly, 5 μl (4×) of compounds solution and 5 μl (final concentration, 10 nM) of enzyme solution is added to white 384 well plates and incubated for 10 mins at 37° C. 5 μl (4×) of Prostaglandin E2 and 5 μl (4×) of β-Nicotinamide adenine dinucleotide sodium salt is added to the wells and incubated for 10 mins at room temperature. Fluorescence is recorded at ex/em=340 nm/485 nm. The percentage (%) inhibition of enzyme activity was determined relative to positive control (1% DMSO) and IC50 was calculated using GraphPad prism software (four parameter-variable slope equation).

Chain of 15-PGDH/HPGD (P15428 whole entry): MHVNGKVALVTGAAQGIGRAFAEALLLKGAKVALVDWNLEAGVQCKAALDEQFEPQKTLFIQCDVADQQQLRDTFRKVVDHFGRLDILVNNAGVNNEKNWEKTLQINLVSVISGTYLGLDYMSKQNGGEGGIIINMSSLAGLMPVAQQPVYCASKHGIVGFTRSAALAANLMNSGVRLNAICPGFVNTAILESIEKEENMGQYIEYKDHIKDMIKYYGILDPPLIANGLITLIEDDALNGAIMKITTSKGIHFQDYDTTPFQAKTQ

| IC50 [nM] | SMILES |
| --- | --- |
| < 100 | CS(=O)(=O)NCCNC(=O)c1cccc(-n2ccc3cc(C(=O)N4CCC(F)(F)CC4)cnc32)c1 [MF-DH-480, 3-(5-(4,4-difluoropiperidine-1-carbonyl)-1H-pyrrolo[2,3-b]pyridin-1-yl)-N-(2-(methylsulfonamido)ethyl)benzamide] |
| 100 to 1000 | COc1ccc(-n2ccc3cc(C(=O)N4[C@H](C)CCC[C@@H]4C)cnc32)cc1 [MF-DH-328, ((2R,6S)-2,6-dimethylpiperidin-1-yl)(1-(4-methoxyphenyl)-1H-pyrrolo[2,3-b]pyridin-5-yl)methanone] |
| < 100 | CCNC(=O)c1ccc(-n2ccc3cc(C(=O)N4CCC(F)(F)CC4)cnc32)nc1 [MF-DH-477, 6-(5-(4,4-difluoropiperidine-1-carbonyl)-1H-pyrrolo[2,3-b]pyridin-1-yl)-N-ethylnicotinamide] |
| < 100 | CN(C)c1cccc(-n2ccc3cc(C(=O)N4CCCCC4)cnc32)c1 [MF-DH-302] |
| < 100 | COc1cccc(-n2cc(Cl)c3cc(C(=O)N4CCCCC4)cnc32)c1 [MF-DH-273] |
| < 100 | O=C(c1cnc2c(ccn2-c2cccnc2)c1)N1CCC(F)CC1 [MF-DH-134] |
| < 100 | Cn1cc(-n2ccc3cc(C(=O)N4CCCCC4)cnc32)cn1 [MF-PGDH-076] |
| 100 to 1000 | O=C(Nc1ccc(C(=O)N2CCCCC2)cc1)c1ccccc1Cl [MF-PGDH-088] |
| < 100 | O=C(c1ccc2c(c1)ncn2-c1ccc(O)c(Cl)c1)N1CCCCC1 [MF-PGDH-061, (1-(3-chloro-4-hydroxyphenyl)-1H-benzo[d]imidazol-5-yl)(piperidin-1-yl)methanone] |
| < 100 | COc1ccc(-n2ccc3cc(C(=O)N4CCC(F)CC4)cnc32)cn1 [MF-DH-157] |
| 100 to 1000 | N#Cc1ccc(-n2c(CCC(N)=O)cc3cc(C(=O)N4CCC(F)(F)CC4)cnc32)cc1 [MF-DH-446, 3-(1-(4-cyanophenyl)-5-(4,4-difluoropiperidine-1-carbonyl)-1H-pyrrolo[2,3-b]pyridin-2-yl)propanamide] |
| < 100 | COc1cncc(-n2ccc3cc(C(=O)N4CCCCC4)cnc32)c1 [MF-DH-296] |
| < 100 | N#Cc1ccc(-n2ccc3cc(C(=O)N4CC[C@H](F)C4)cnc32)cc1 (single isomer, unassigned) [MF-DH-574] |
| < 100 | O=C(c1cnc2c(ccn2-c2c[nH]cn2)c1)N1CCCCC1 [MF-PGDH-075] |
| < 100 | Cc1c(C(=O)N2CCC(F)CC2)cnc2c1ccn2-c1cnccn1 [MF-DH-150, (4-fluoropiperidin-1-yl)(4-methyl-1-(pyrazin-2-yl)-1H-pyrrolo[2,3-b]pyridin-5-yl)methanone] |
| 100 to 1000 | CC(C)(O)CCC#Cc1nc2cc(C(=O)N3CCC(F)(F)CC3)cnc2n1-c1ccc(C#N)cc1 [MF-DH-544, 4-(6-(4,4-difluoropiperidine-1-carbonyl)-2-(5-hydroxy-5-methylhex-1-yn-1-yl)-3H-imidazo[4,5-b]pyridin-3-yl)benzonitrile] |
| < 100 | Nc1ccc(-n2ccc3cc(C(=O)N4CCCCC4)cnc32)cn1 [MF-DH-336] |
| < 100 | N#Cc1ccc(-n2cc(Cl)c3cc(C(=O)N4CCC(F)CC4)cnc32)cc1 [MF-DH-388] |
| ≥ 1000 | Cc1nc2c(cc1C(=O)N1CCC(F)CC1)c(Cl)cn2-c1cnccn1 [MF-DH-149] |
| < 100 | NC(=O)[C@@H]1CCCN1C(=O)c1cccc(-n2ccc3cc(C(=O)N4CCC(F)(F)CC4)cnc32)c1 [MF-DH-486, (S)-1-(3-(5-(4,4-difluoropiperidine-1-carbonyl)-1H-pyrrolo[2,3-b]pyridin-1-yl)benzoyl)pyrrolidine-2-carboxamide] |
| < 100 | Nc1cncc(-n2ccc3cc(C(=O)N4CCCCC4)cnc32)c1 [MF-DH-322] |
| < 100 | O=C(O)c1ccc(-n2ccc3cc(C(=O)N4CCCCC4)cnc32)cc1 [MF-DH-433, 4-(5-(piperidine-1-carbonyl)-1H-pyrrolo[2,3-b]pyridin-1-yl)benzoic acid] |

| IC50 [nM] | SMILES |
| --- | --- |
| < 100 | O=C(c1ccc2c(cnn2-c2cccc(Cl)c2)c1)N1CCCCC1 [MF-PGDH-006, (1-(3-chlorophenyl)-1H-indazol-5-yl)(piperidin-1-yl)methanone] |
| < 100 | O=C(c1ccc2c(c1)ncn2-c1cccc(Cl)c1)N1CC(F)C1 [MF-PGDH-106] |
| ≥ 1000 | O=C(c1ccc2c(c1)ncn2-c1cccc(Cl)c1)N1CCC(F)(F)C1 [MF-PGDH-047] |
| < 100 | O=C(c1ccc2c(ccn2-c2cccc(Cl)c2)c1)N1CCCCC1 [MF-PGDH-004] |
| ≥ 1000 | O=C(c1ccc(COc2ccccc2Cl)cn1)N1CCC(F)CC1 [MF-DH-121, (5-((2-chlorophenoxy)methyl)pyridin-2-yl)(4-fluoropiperidin-1-yl)methanone] |
| 100 to 1000 | CC(C)(C#Cc1ccc(-n2ccc3cc(C(=O)N4CCC(F)(F)CC4)cnc32)cn1)S(C)(=O)=O [MF-DH-465, (4,4-difluoropiperidin-1-yl)(1-(6-(3-methyl-3-(methylsulfonyl)but-1-yn-1-yl)pyridin-3-yl)-1H-pyrrolo[2,3-b]pyridin-5-yl)methanone] |
| < 100 | O=C(c1ccc2c(c1)nnn2-c1cccc(Cl)c1)N1CCCCC1 [MF-PGDH-011, (1-(3-chlorophenyl)-1H-benzo[d][1,2,3]triazol-5-yl)(piperidin-1-yl)methanone] |
| < 100 | Cc1nc(-c2cccc(-n3ccc4cc(C(=O)N5CCCCC5)cnc43)c2)no1 [MF-DH-402] |
| 100 to 1000 | COc1ccc(-n2c(CCC(F)(F)F)nc3cc(C(=O)N4CCC(F)CC4)cnc32)cc1 [MF-DH-195] |
| 100 to 1000 | N#Cc1ccc(-n2ccc3cc(C(=O)N4CCC(F)(F)CC4)cnc32)nc1 [MF-DH-440] |
| < 100 | O=C(c1cnc2c(ccn2-c2ccc(CO)cc2)c1)N1CCC(F)CC1 [MF-DH-347] |
| < 100 | Cc1cncc(-n2ccc3cc(C(=O)N4CCCCC4)cnc32)c1 [MF-DH-320] |
| ≥ 1000 | Cc1ccc(S(=O)(=O)n2ccc3cc(C(=O)N4CCCCC4)cnc32)cc1 [MF-DH-312, piperidin-1-yl(1-tosyl-1H-pyrrolo[2,3-b]pyridin-5-yl)methanone] |
| < 100 | N#Cc1cccc(-n2ccc3cc(C(=O)N4CCCCC4)cnc32)c1 [MF-DH-300] |
| < 100 | CCOC(=O)c1nc2cc(C(=O)N3CCCCC3)ccc2n1-c1cccc(Cl)c1 [MF-PGDH-027, ethyl 1-(3-chlorophenyl)-5-(piperidine-1-carbonyl)-1H-benzo[d]imidazole-2-carboxylate] |
| < 100 | COc1ccc(-n2cc(Cl)c3cc(C(=O)N4CCCCC4)cnc32)cc1 [MF-DH-239] |
| < 100 | O=C(c1ccc(COc2ccccc2Br)cc1)N1CCCCC1 [MF-PGDH-036] |
| < 100 | O=C(O)CCc1nc2cc(C(=O)N3CCCCC3)ccc2n1-c1cccc(Cl)c1 [MF-PGDH-034, 3-(1-(3-chlorophenyl)-5-(piperidine-1-carbonyl)-1H-benzo[d]imidazol-2-yl)propanoic acid] |
| < 100 | O=C(c1ccc2c(c1)ncn2-c1cccc(Cl)c1)N1CC2CCC(C2)C1 [MF-PGDH-018] |
| 100 to 1000 | O=C(c1cnc2c(c1)c(Cl)cn2-c1ccncn1)N1CCC(F)CC1 [MF-DH-132] |
| 100 to 1000 | CC(C)(O)c1cccc(-n2ccc3cc(C(=O)N4CCCCC4)cnc32)c1 [MF-DH-375] |
| 100 to 1000 | NCc1cccc(-n2ccc3cc(C(=O)N4CCCCC4)cnc32)c1 [MF-DH-303] |
